Laboratory results as given in PMC8397291 (2021).

Legend:
Assay in all cases: competitive native PAGE, 2a staining
Conditions in all cases: 100 mM KCl; TBE; 100 μM competitor with 20 μM c-MYC Pu22; 5 μM 2a
[1] = tested on: TBA (DNA, G4) GGTTGGTGTGGTTGG
[2] = tested on: s.c. ds-DNA (DNA, duplex) CAATCGGATCGAATTCGATCCGATTG
[3] = tested on: GC-rich ds-DNA (DNA, duplex) TGAGGGTGGGTAGGGTGGGTAA/TTACCCACCCTACCCACCCTCA

Measured: binding

CCN(CC)c1ccc2cc(C(=N)N)c(=O)oc2c1
no: all assays above
